Measurements published in patent publication US11472799B2, “Serine threonine kinase (AKT) degradation / disruption compounds and methods of use” (Icahn School of Medicine at Mount Sinai, priority 2018, dated 2022).

Tested on: AKT
Experiment: Western blot of AKT protein levels and downstream signaling in BT474 cells
Assay type: cell-based, human
Details: Western blot (FIGS. 1, 3, 4)
Procedure: (§1) PC-3, U87MG, HCC1143, MDA-MB-231, MDA-MB-468, BT474 and MCF-7 cell lines were purchased from ATCC. Cell lines were regularly tested in the lab for mycoplasma. All cells were cultured at 37° C. and 5% CO2. PC-3, U87MG, MDA-MB-231, MCF-7 and BT474 cells were cultured in 1×DMEM (Corning, 10-013-CV) with 10% fetal bovine serum (Atlanta Biologicals S11150) and 1× Penicillin/Streptomycin. HCC1143 cells were cultured in RPMI (Corning, 10-040-CV) medium with 10% fetal bovine serum (Atlanta Biologicals S11150) and 1× Penicillin/Streptomycin. Cells were split using 0.05% or 0.25% trypsin (Corning 25-051-Cl or 25-053-Cl, respectively) before they reached full confluence and media was changed every 3-4 days. Cells were treated with compounds individually at different concentrations for 24 hrs. Cells were treated with DMSO, VHL, or PML alone as controls.
(§2) Cells were lysed in 2× sample buffer (125 mM Tris-HCl at pH 6.8, 10% βME, 2% SDS, 20% glycerol, 0.05% Bromophenol Blue, 8 M urea). Protein lysates were loaded into 4-12% Bis-Tris gels and resolved by electrophoresis. Samples were then blotted on PVDF membrane (Millipore IPVH00010) using the wet transfer technique (Invitrogen). Membranes were blocked in 5% milk-TBST for 1 hour, washed in TBST for 10 min, and incubated in primary antibody in 5% milk-TBST or 5% BSA-TBST at 4° C. for 16 h. Membranes were rinsed (3×6 min) in TBST and incubated in horseradish peroxidase-conjugated secondary antibodies in 5% milk-TBST for 1 hour and rinsed again in TBST (3×6 min). Membranes were visualized using the chemiluminescence system (Thermo 34080, 37075) on autoradiography film (Denville E3018). Primary Antibodies: R-actin (Sigma A5316), p-AKT (Ser473 CST-9721), total AKT (CST-9272), p-S6 (Ser240/244, CST-5364), p-PRAS40 (Thr246, CST-2997). Secondary Antibodies: Mouse (Thermo 31432), Rabbit (Thermo 31460).

Row | SMILES | suppression of AKT protein level and AKT activity
1 | Cc1ncsc1-c1ccc(CNC(=O)[C@@H]2C[C@@H](O)CN2C(=O)[C@@H](NC(=O)CCCCCCCCCNC(=O)CCNC[C@@H](C(=O)N2CCN(c3ncnc4c3[C@H](C)C[C@H]4O)CC2)c2ccc(Cl)cc2)C(C)(C)C)cc1 [XF038-165A, (2S,4R)-1-((S)-2-(10-(3-(((S)-2-(4-chlorophenyl)-3-(4-((5R,7R)-7-hydroxy-5-methyl-6,7-dihydro-5H-cyclopenta[d]pyrimidin-4-yl)piperazin-1-yl)-3-oxopropyl)amino)propanamido)decanamido)-3,3-dimethylbutanoyl)-4-hydroxy-N-(4-(4-methylthiazol-5-yl)benzyl)pyrrolidine-2-carboxamide] | effective in suppressing both AKT protein level and AKT activity
2 | Cc1ncsc1-c1ccc(CNC(=O)[C@@H]2C[C@@H](O)CN2C(=O)[C@@H](NC(=O)CCCCCCCCCCCC(=O)N2CCN(CC[C@H](NC(=O)C3(N)CCN(c4ncnc5[nH]ccc45)CC3)c3ccc(Cl)cc3)CC2)C(C)(C)C)cc1 [XF050-144, 4-amino-N-((S)-1-(4-chlorophenyl)-3-(4-(13-(((S)-1-((2S,4R)-4-hydroxy-2-((4-(4-methylthiazol-5-yl)benzyl)carbamoyl)pyrrolidin-1-yl)-3,3-dimethyl-1-oxobutan-2-yl)amino)-13-oxotridecanoyl)piperazin-1-yl)propyl)-1-(7H-pyrrolo[2,3-d]pyrimidin-4-yl)piperidine-4-carboxamide] | effective in suppressing both AKT protein level and AKT activity
3 | C[C@@H]1C[C@@H](O)c2ncnc(N3CCN(C(=O)[C@H](CNCCNC(=O)CCOCCOCCOCCOCCOCCNc4cccc5c4C(=O)N(C4CCC(=O)NC4=O)C5=O)c4ccc(Cl)cc4)CC3)c21 (stereo partly drawn) [XF048-4, N-(2-(((S)-2-(4-chlorophenyl)-3-(4-((5R,7R)-7-hydroxy-5-methyl-6,7-dihydro-5H-cyclopenta[d]pyrimidin-4-yl)piperazin-1-yl)-3-oxopropyl)amino)ethyl)-1-((2-(2,6-dioxopiperidin-3-yl)-1,3-dioxoisoindolin-4-yl)amino)-3,6,9,12,15-pentaoxaoetadecan-18-amide] | effective in suppressing both AKT protein level and AKT activity
4 | NC1(C(=O)N[C@@H](CCN2CCN(C(=O)CCOCCOCCOCCOCCNc3cccc4c3C(=O)N(C3CCC(=O)NC3=O)C4=O)CC2)c2ccc(Cl)cc2)CCN(c2ncnc3[nH]ccc23)CC1 (stereo partly drawn) [XF050-32, 4-amino-N-((1S)-1-(4-chlorophenyl)-3-(4-(1-((2-(2,6-dioxopiperidin-3-yl)-1,3-dioxoisoindolin-4-yl)amino)-3,6,9,12-tetraoxapentadecan-15-oyl)piperazin-1-yl)propyl)-1-(7H-pyrrolo[2,3-d]pyrimidin-4-yl)piperidine-4-carboxamide] | effective in suppressing both AKT protein level and AKT activity
5 | Cc1ncsc1-c1ccc(CNC(=O)[C@@H]2C[C@@H](O)CN2C(=O)[C@@H](NC(=O)CCCCCC(=O)N2CCN(CC[C@H](NC(=O)C3(N)CCN(c4ncnc5[nH]ccc45)CC3)c3ccc(Cl)cc3)CC2)C(C)(C)C)cc1 [XF050-17, 4-amino-N-((S)-1-(4-chlorophenyl)-3-(4-(7-(((S)-1-((2S,4R)-4-hydroxy-2-((4-(4-methylthiazol-5-yl)benzyl)carbamoyl)pyrrolidin-1-yl)-3,3-dimethyl-1-oxobutan-2-yl)amino)-7-oxoheptanoyl)piperazin-1-yl)propyl)-1-(7H-pyrrolo[2,3-d]pyrimidin-4-yl)piperidine-4-carboxamide] | effective in suppressing both AKT protein level and AKT activity
6 | Cc1ncsc1-c1ccc(CNC(=O)[C@@H]2C[C@@H](O)CN2C(=O)[C@@H](NC(=O)COCC(=O)N2CCN(CC[C@H](NC(=O)C3(N)CCN(c4ncnc5[nH]ccc45)CC3)c3ccc(Cl)cc3)CC2)C(C)(C)C)cc1 [XF050-5, 4-amino-N-((S)-1-(4-chlorophenyl)-3-(4-(2-(2-(((S)-1-((2S,4R)-4-hydroxy-2-((4-(4-methylthiazol-5-yl)benzyl)carbamoyl)pyrrolidin-1-yl)-3,3-dimethyl-1-oxobutan-2-yl)amino)-2-oxoethoxy)acetyl)piperazin-1-yl)propyl)-1-(7H-pyrrolo[2,3-d]pyrimidin-4-yl)piperidine-4-carboxamide] | effective in suppressing both AKT protein level and AKT activity
7 | C[C@@H]1C[C@@H](O)c2ncnc(N3CCN(C(=O)[C@H](CNCCC(=O)NCCOCCOCCNc4cccc5c4C(=O)N(C4CCC(=O)NC4=O)C5=O)c4ccc(Cl)cc4)CC3)c21 (stereo partly drawn) [XF048-7, 3-(((S)-2-(4-chlorophenyl)-3-(4-((5R,7R)-7-hydroxy-5-methyl-6,7-dihydro-5H-cyclopenta[d]pyrimidin-4-yl)piperazin-1-yl)-3-oxopropyl)amino)-N-(2-(2-(2-((2-(2,6-dioxopiperidin-3-yl)-1,3-dioxoisoindolin-4-yl)amino)ethoxy)ethoxy)ethyl) propanamide] | effective in suppressing both AKT protein level and AKT activity
8 | Cc1ncsc1-c1ccc(CNC(=O)[C@@H]2C[C@@H](O)CN2C(=O)[C@@H](NC(=O)CCCCCCCCCCCCC(=O)N2CCN(CC[C@H](NC(=O)C3(N)CCN(c4ncnc5[nH]ccc45)CC3)c3ccc(Cl)cc3)CC2)C(C)(C)C)cc1 [XF050-145, 4-amino-N-((S)-1-(4-chlorophenyl)-3-(4-(14-(((S)-1-((2S,4R)-4-hydroxy-2-((4-(4-methylthiazol-5-yl)benzyl)carbamoyl)pyrrolidin-1-yl)-3,3-dimethyl-1-oxobutan-2-yl)amino)-14-oxotetradecanoyl)piperazin-1-yl)propyl)-1-(7H-pyrrolo[2,3-d]pyrimidin-4-yl)piperidine-4-carboxamide] | effective in suppressing both AKT protein level and AKT activity
9 | C[C@@H]1C[C@@H](O)c2ncnc(N3CCN(C(=O)[C@H](CNCCNC(=O)CCOCCOCCOCCOCCNc4cccc5c4C(=O)N(C4CCC(=O)NC4=O)C5=O)c4ccc(Cl)cc4)CC3)c21 (stereo partly drawn) [XF048-3, N-(2-(((S)-2-(4-chlorophenyl)-3-(4-((5R,7R)-7-hydroxy-5-methyl-6,7-dihydro-5H-cyclopenta[d]pyrimidin-4-yl)piperazin-1-yl)-3-oxopropyl)amino)ethyl)-1-((2-(2,6-dioxopiperidin-3-yl)-1,3-dioxoisoindolin-4-yl)amino)-3,6,9,12-tetraoxapentadecan-15-amide] | effective in suppressing both AKT protein level and AKT activity

Tested on: AKT
Experiment: Western blot of AKT protein levels in PC-3 cells
Assay type: cell-based, human
Details: 1 μM (FIGS. 11 and 12)
Procedure: as §1, §2

Row | SMILES | suppression of AKT protein level and AKT activity
10 | Cc1ncsc1-c1ccc(CNC(=O)[C@@H]2C[C@@H](O)CN2C(=O)[C@@H](NC(=O)CCCCCCCCCC(=O)NCCc2cccc(-c3ccc4nc(-c5cccnc5N)n(-c5ccc(C6(N)CCC6)cc5)c4n3)c2)C(C)(C)C)cc1 [XF067-47, N^1-(3-(3-(4-(1-aminocyclobutyl)phenyl)-2-(2-aminopyridin-3-yl)-3H-imidazo[4,5-b]pyridin-5-yl)phenethyl)-N^11-((S)-1-((2S,4R)-4-hydroxy-2-((4-(4-methylthiazol-5-yl)benzyl)carbamoyl)pyrrolidin-1-yl)-3,3-dimethyl-1-oxobutan-2-yl)undecanediamide] | effective in suppressing AKT protein level and AKT activity
